Where two headings read alike, the source gives them in different places.
Key:
[1] = tested on: ventricular arrhythmia in mice produced by chloroform inhalation; experiment: Test I: antiarrhythmic activity for ventricular arrhythmia in mice produced by chloroform inhalation; type: in vivo; settings: for ED50: Mus musculus, ip, read-out: Antiarrhythmic activity, ED50
From the text: I. Antiarrhythmic activity for ventricular arrhythmia in mice
produced by chloroform inhalation; ED50 expressed as mg/kg
body weight, intraperitoneal administration, J. W. Lawson, […]

[2] = man, two or more hours following 50 mg. dose of encainide hydrochloride orally
Experimental: A. Extraction of Biological Fluid. To 1 ml of plasma or urine in a screw-capped tube there is added 0.2 ml of 0.5 M. Tris-HCl buffer (2-amino-2-hydroxymethyl-1,3-propanediol), pH 8.5, and 10 ml of n-butyl chloride containing 5% by volume of isopropanol. The sample is then shaken on an oscillating mixer followed by centrifugation to separate the phases. A 9 ml aliquot of the organic layer is removed and evaporated to dryness under a stream of nitrogen and the residue is redissolved in 100 mcl of ethanol. A 50 mcl aliquot of this solution is injected onto the column for high pressure liquid chromatography.
B. High Pressure Liquid Chromatography (HPLC) Conditions. A normal phase silicic acid column having dimensions 3.9 mm by 30 cm in length equipped with a variable wavelength UV detector set at 254 nm is used. The mobil phase employed consists of 500 ml of ethanol, 30 ml of water, and 0.1 ml of methanesulfonic acid at a flow rate of 1 ml per minute. A series of standards containing 0, 25, 100 and 500 ng/ml of each compound to be assayed was prepared using pooled human plasma. These standards were treated as described above. Quantification of the detector response was achieved by digital integration or measurement of peak heights. The standard curve for each component was constructed by linear regression of the detector response versus concentration from the plasma standards. […]

mouse = experiment: Test II: approximation of the oral toxicity in mice (ALD50/ATD50); settings: comparison among the tabulated compounds, mice
From the text: (§1) II. AlD50 /ATD50 mouse treated orally; ALD50 is the
(§2) lethal dose for half the animals; ATD50 is the approximate
(§3) lowest dose where signs of physiologic or neurologic deficit
(§4) appear in half the animals, expressed as mg/kg body weight.

in vivo = settings: mouse, in vivo, po
From the text: as §1, §2, §3, §4

clinical = settings: for half-life: human
Experimental: III. Time following oral dosing of humans with 75 mg. of encainide
hydrochloride for clearance (plasma concentration <20 ng./ml.)
from blood plasma; hours.
IV. Approximate half life in human blood plasma following oral
dosing with encainide hydrochloride; hours.
A. Extraction of Biological Fluid.
B. High Pressure Liquid Chromatography (HPLC) Conditions. […] These standards were treated as described above.

[3] = following treatment with encainide; cited from earlier work
[4] = mice, chloroform inhalation, intraperitoneal administration, ranges are of various determinations

Structure (SMILES)	ED50 [1, 4]	Concentration in blood plasma relative to Compound No. 89 [2]	Toxicity (in words) (mouse)	LD50 (in vivo)	TD50 (in vivo)	half-life (clinical; in vivo, po)	Presence in the blood (in words) (clinical; in vivo, po)	Time following oral dosing for clearance (plasma concentration <20 ng./ml.) from blood plasma (clinical; in vivo, po)	ED50 [1]	Antiarrhythmic activity (in words) ([1]; comparison among the tabulated compounds, mice)	half-life (clinical; in vivo, po, 75 mg)	Time following oral dosing for clearance (plasma concentration <20 ng./ml.) from blood plasma (clinical; humans dosed orally with 75 mg. of encainide hydrochloride)	Amount in plasma relative to encainide [3]
COc1cc(C(=O)Nc2ccccc2CCC2CCCCN2C)ccc1O (stereo not drawn) [Compound A, 4-Hydroxy-3-methoxy-N-[2-[2-(1-methyl-2-piperidinyl)ethyl]phenyl]benzamide]	9.5 mg/kg	substantially greater	reduced toxicity	250 mg/kg	31.3 to 62.5 mg/kg	4 to 6 h	more prolonged presence in the blood	> 16 h					
CN1CCCCC1CCc1ccccc1NC(=O)c1ccc(O)cc1 (stereo not drawn) [Compound No. 89, O-demethylencainide]			somewhat more toxic in mice	25 to 50 mg/kg	5 to 10 mg/kg				1.7 to 2.8 mg/kg	somewhat more potent	4 to 6 h	> 16 h	several times the concentration of encainide
COc1ccc(C(=O)Nc2ccccc2CCC2CCCCN2C)cc1 (stereo not drawn) [Compound No. 107, encainide]	5.3 to 15 mg/kg			50 to 100 mg/kg	5 to 10 mg/kg	2.5 to 3 h		6 h					
COc1cccc(C(=O)Nc2ccccc2CCC2CCCCN2C)c1 (stereo not drawn) [compound 108]	10 mg/kg			100 mg/kg	10 to 25 mg/kg								
COc1ccc(C(=O)Nc2ccccc2CCC2CCCCN2C)cc1OC (stereo not drawn) [compound 109]	10 mg/kg			100 mg/kg	25 mg/kg								
COc1ccc(C(=O)Nc2ccccc2CCC2CCCCN2)cc1 (stereo not drawn) [compound 139, N-demethylencainide]	28 mg/kg			147 mg/kg	15.7 mg/kg								

Source: patent publication US4332803A, “Benzanilide derivative” (Mead Johnson & Company, priority 1980, dated 1982)
